Measurements from patent publication US8772277B2, “Nitrogen-containing heterocyclic compound” (Takeda Pharmaceutical Company Limited, priority 2011, dated 2014).
Structures can show the parent of a compound that is named as a salt.

Tests used:
[1] = molecular target: T1, fusion protein containing GAL4-DNA-binding domain and ERR full-length (Homo sapiens, UniProt P11474); assay: Reporter assay system using 293T cells (GAL4-ERR luciferase, inverse agonist activity); format: cell-based; conditions: compound final concentration 3 μM, no compound = 0%, 10 μM XCT-790 = 100%
T1 construct: expressed in transfected cells; host or cells: 293T cells
T1 sequence (P11474 1-423): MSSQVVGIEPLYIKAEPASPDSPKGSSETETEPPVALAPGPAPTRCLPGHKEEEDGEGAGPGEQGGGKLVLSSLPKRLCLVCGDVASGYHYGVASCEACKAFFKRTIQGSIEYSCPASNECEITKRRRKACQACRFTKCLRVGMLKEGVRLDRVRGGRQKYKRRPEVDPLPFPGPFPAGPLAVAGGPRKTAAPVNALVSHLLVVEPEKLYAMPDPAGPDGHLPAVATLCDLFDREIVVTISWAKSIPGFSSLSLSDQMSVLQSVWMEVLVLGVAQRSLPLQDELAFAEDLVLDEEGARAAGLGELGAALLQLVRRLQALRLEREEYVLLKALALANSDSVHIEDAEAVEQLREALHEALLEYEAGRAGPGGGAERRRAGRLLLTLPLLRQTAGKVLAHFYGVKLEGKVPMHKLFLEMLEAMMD
Method: Experimental Example 2 Compound Evaluation in Reporter Assay System Using 293T Cells
293T cells derived from human kidney were seeded in a 150 cm^2 flask by 6,000,000 cells, and cultured in a medium (DMEM medium containing 10% inactivated Fetal Bovine Serum sterile filtered (FBS), […] Gentamicin, 10 mM HEPES buffer (pH 7.4)) at 37° C. in the presence of 5% CO2 for 1 day.
Then, vector DNA having a gene encoding a fusion protein, containing GAL4-DNA-binding domain and ERR full-length and a vector DNA wherein luciferase gene is fused at the downstream of GAL4-binding-sequence were cotransfected by a lipofection method, and the cells were cultured at 37° C. in the presence of 5% CO2 for 1 day. The cells were recovered, sown in a 384 well plate by 15,000 cells, and cultured at 37° C. in the presence of 5% CO2 for 3 hrs. Furthermore, 50 μM N-[5-(trifluoromethyl)-1,3,4-thiadiazol-2-yl]-2-cyano-3-[3-methoxy-4-[2,4-di(trifluoromethyl)benzyloxy]phenyl]propenamide (XCT-790) (final concentration 10 μM) or 15 μM compound (final concentration 3 μM) was added, and the cells were cultured at 37° C. in the presence of 5% CO2 for 1 day. The luciferase activity was measured by using multiplate reader Envision (Perkin Elmer Inc.). The inverse agonist activity of the compound was calculated in percentage with the luciferase activity inhibited by no addition of compound as 0%, and with addition of final concentration 10 μM of XCT-790 as 100%.

[2] = molecular target: T2, GST-ERR-α ligand-binding domain (Homo sapiens, UniProt P11474); assay: HTRF assay system using ERR-α ligand-binding domain (inverse agonist activity, biotinylated SRC-1 (676-700) peptide); format: biochemical; conditions: compound final concentration 30 μM, 665/620 ratio, no compound = 0%, 10 μM XCT-790 = 100%
T2 sequence (P11474 193-421 limits assumed): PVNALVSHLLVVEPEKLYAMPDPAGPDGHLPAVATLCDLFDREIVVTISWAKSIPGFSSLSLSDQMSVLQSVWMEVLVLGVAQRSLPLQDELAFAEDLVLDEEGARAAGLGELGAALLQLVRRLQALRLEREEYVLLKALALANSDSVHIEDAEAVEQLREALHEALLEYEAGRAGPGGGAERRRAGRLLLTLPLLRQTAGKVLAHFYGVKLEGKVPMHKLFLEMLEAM
Method: Experimental Example 1 Compound Evaluation in HTRF Assay System Using ERR-α Ligand-Binding Domain
An assay buffer (25 mM HEPES, 100 mM NaCl, 1 mM DTT, 0.1% BSA) containing 5 nM GST-ERR-α ligand-binding domain (final concentration 1.25 nM) was added to a 384 well plate, then 40 μM N-[5-(trifluoromethyl)-1,3,4-thiadiazol-2-yl]-2-cyano-3-[3-methoxy-4-[2,4-di(trifluoromethyl)benzyloxy]phenyl]propenamide (XCT-790) (final concentration 10 μM), or 120 μM compound (final concentration 30 μM) was added. Furthermore, an assay buffer containing XL665 conjugated Streptavidin, Eu^3+ criptate conjugated GST antibody and 200 nM biotinylated SRC-1 (676-700) (final concentration 100 nM) was added, and the mixture was reacted at room temperature for 2 hr. Using Multiplate reader Envision (Perkin Elmer Inc.), after excitation at 320 nm, fluorescence values at 620 nm and 665 nm were measured. The inverse agonist activity of the compound was calculated in percentage with the 665/620 ratio value inhibited by no addition of compound as 0%, and with addition of final concentration 10 μM of XCT-790 as 100%.

MDA-MB-231-luc cells = assay: Antitumor test using MDA-MB-231-luc cells (subcutaneous transplant); format: in vivo, Balb/c nu/nu mice; conditions: change in tumor volume, vehicle group = 100%
Method: Experimental Example 3 Antitumor Test using MDA-MB-231-luc Cells
6-Week-old Balb/c nu/nu mice were transplanted subcutaneously with 5×10^6 cells/100 μL, and the mice were grouped according to the body weight and tumor volume after 1 to 2 weeks. Vehicle (0.5% MC) or a compound was administered orally to mice (6 mice per group). The administration was twice per day and performed continuously during the dosing period. Setting the change in tumor volume of the vehicle-treated group as 100%, the change rate in tumor volume of the compound-treated group (□/C %) was calculated.

Structure (SMILES): O=C1N=C(NCCOCCO)/C(=C/C2CCN(Cc3ccc(C(F)(F)F)cc3C(F)(F)F)CC2)S1 [Example 195, (5Z)-5-({1-[2,4-bis(trifluoromethyl)benzyl]piperidin-4-yl}methylidene)-4-{[2-(2-hydroxyethoxy)ethyl]amino}-1,3-thiazol-2(5H)-one hydrochloride]
- inhibition rate (%) at 3 μM ([1]; hydrochloride): 90%
- inhibition rate (%) at 30 μM ([2]; hydrochloride): 102%
- T/C (%) (MDA-MB-231-luc cells; 50 mg/kg orally twice per day, dosing period 17 days): 56%

Structure (SMILES): C#CCNC1=NC(=O)S/C1=C\C1CCN(Cc2ccc(C(F)(F)F)cc2C(F)(F)F)CC1 [Example 7, (5Z)-5-({1-[2,4-bis(trifluoromethyl)benzyl]piperidin-4-yl}methylidene)-4-(prop-2-yn-1-ylamino)-1,3-thiazol-2(5H)-one]
- inhibition rate (%) at 3 μM [1]: 87%
- inhibition rate (%) at 30 μM [2]: 100%
- T/C (%) (MDA-MB-231-luc cells; 50 mg/kg orally twice per day, dosing period 14 days): 24%

Structure (SMILES): C#CCNC1=NC(=O)S/C1=C\C1CCN(Cc2ccc(C(F)(F)F)cc2C(F)(F)F)CC1 [Example 10, (5Z)-5-({1-[2,4-bis(trifluoromethyl)benzyl]piperidin-4-yl}methylidene)-4-(prop-2-yn-1-ylamino)-1,3-thiazol-2(5H)-one fumarate]
- inhibition rate (%) at 3 μM ([1]; fumarate): 93%
- inhibition rate (%) at 30 μM ([2]; fumarate): 102%
- T/C (%) (MDA-MB-231-luc cells; 60 mg/kg orally twice per day, dosing period 15 days): 15%

Structure (SMILES): O=C1N=C(NCCOCCO)/C(=C/C2CCN(Cc3ccc(C(F)(F)F)cc3C(F)(F)F)CC2)S1 [Example 13, (5Z)-5-({1-[2,4-bis(trifluoromethyl)benzyl]piperidin-4-yl}methylidene)-4-{[2-(2-hydroxyethoxy)ethyl]amino}-1,3-thiazol-2(5H)-one ditoluenesulfonate]
- inhibition at 3 µM ([1]; HEK-293T, read-out: inhibition rate (%) at 3 μM): 89%
- inhibition at 30 µM ([2]; read-out: inhibition rate (%) at 30 μM): 105%
- T/C (%) (MDA-MB-231-luc cells; 100 mg/kg orally twice per day, dosing period 15 days): 20%
